Measurements as given in patent publication US7972800B2, “Screening method for binding property or signal transduction alterations” (Takeda Pharmaceutical Company Limited, priority 2003, dated 2011).

What was measured:
Format in all cases: cell-based
[1] = target: T1, mouse GPR39 (Mus musculus, UniProt Q5U431, T447P); conditions: FLIPR, Fluo-3AM (FIG. 14 through FIG. 18)
T1 construct: expressed in transfected cells; host or cells: CHO cells, vector pAKKO-111H
T1 sequence (Q5U431 1-456 T447P): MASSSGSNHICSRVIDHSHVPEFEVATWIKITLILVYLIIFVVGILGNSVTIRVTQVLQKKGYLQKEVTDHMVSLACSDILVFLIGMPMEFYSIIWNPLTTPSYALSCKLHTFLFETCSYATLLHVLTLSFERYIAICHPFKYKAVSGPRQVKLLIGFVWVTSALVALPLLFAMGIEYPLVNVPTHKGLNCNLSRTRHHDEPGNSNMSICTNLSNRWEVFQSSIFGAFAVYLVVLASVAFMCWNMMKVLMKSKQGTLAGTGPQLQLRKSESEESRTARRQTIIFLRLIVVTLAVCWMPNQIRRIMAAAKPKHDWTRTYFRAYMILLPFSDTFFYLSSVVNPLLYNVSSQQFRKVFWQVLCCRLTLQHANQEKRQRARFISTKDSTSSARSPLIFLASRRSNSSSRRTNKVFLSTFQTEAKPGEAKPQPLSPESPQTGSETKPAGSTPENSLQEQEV
Method: (§1) Using the CHO cell line where rat GPR39 was stably expressed, the agonist activity of metal ions was detected using FLIPR in terms of the intracellular calcium-increasing reaction as an indicator. The CHO cell line used, wherein rat GPR39 was stably expressed, was cultured in HAM's αMEM (Invitrogen Corp.) containing 10% calf fetal serum (Invitrogen Corp.). On the day before the assay was conducted, the human GPR39-expressing CHO cell line was cultured in a culture flask to reach a confluent state. After washing with PBS, the cells were scraped off using trypsin and centrifuged for recovery. The cells were then suspended in medium and the suspension was adjusted to 3×10^5 cells/ml. Then, the suspension was dispensed onto a black walled 96-well plate (Costar) in 100 μl each per well, followed by incubation overnight in a CO2 incubator.
(§2) On the day when the assay was conducted, various test samples were added to the cells and the changes of intracellular calcium levels in this case were determined by FLIPR (Molecular Device). In order to determine the changes in intracellular calcium levels on FLIPR, the cells were pre-treated by the following procedures. First, for the purpose of adding a fluorescent dye Fluo-3AM (DOJIN) to the cells or washing the cells immediately before the FLIPR assay, an assay buffer was prepared. A solution was prepared by adding 20 ml of 1M HEPES (pH 7.4) (DOJIN) to 1000 ml of HBSS (Invitrogen Corp.) (hereinafter HBSS/HEPES solution), to which solution was added 10 ml of a solution mixture obtained by dissolving 710 mg of Probenecid (Sigma) in 5 ml of 1N NaOH and further adding 5 ml of HBSS/HEPES solution thereto. The resulting solution was used as the assay buffer. Next, 50 μg of Fluo-3AM was dissolved in 21 μl of DMSO (DOJIN) and an equal volume of 20% Pluronic acid (Molecular Probes) was added to and mixed with the solution. The mixture was then added to 10.6 ml of the assay buffer supplemented with 105 μl of fetal calf serum to prepare a fluorescent dye solution. The medium for the CHO cells where human GPR39 was stably expressed was removed. Immediately thereafter, the fluorescent dye solution was dispensed in 100 μl each/well and the cells were incubated in a CO2 incubator for an hour so that the fluorescent dye was taken up into the cells. The cells after the incubation was washed with the assay buffer described above and set on FLIPR. A test sample to be added to the CHO cells where rat GPR39 was stably expressed was prepared using the assay buffer and set on FLIPR at the same time. Following the pre-treatment above, the changes in intracellular calcium levels after the addition of each test sample were determined by FLIPR.
Using the CHO cell line where mouse GPR39 was stably expressed, the agonist activity of metal ions was detected on FLIPR in accordance with the procedures described in EXAMPLE 5, in terms of the intracellular calcium-increasing reaction as an indicator.

[2] = tested on: rat GPR39; conditions: FLIPR, Fluo-3AM (FIG. 9 through FIG. 13)
Method: as §1, §2

[3] = target: T2, human GPR39 (Homo sapiens, UniProt O43194); set-up: expressed in transfected cells; host or cells: CHO cells, vector pAKKO-111H; conditions: FLIPR, Fluo-3AM; metal salt added, 10-300 μM (FIGS. 1-4)
T2 sequence (O43194 1-453): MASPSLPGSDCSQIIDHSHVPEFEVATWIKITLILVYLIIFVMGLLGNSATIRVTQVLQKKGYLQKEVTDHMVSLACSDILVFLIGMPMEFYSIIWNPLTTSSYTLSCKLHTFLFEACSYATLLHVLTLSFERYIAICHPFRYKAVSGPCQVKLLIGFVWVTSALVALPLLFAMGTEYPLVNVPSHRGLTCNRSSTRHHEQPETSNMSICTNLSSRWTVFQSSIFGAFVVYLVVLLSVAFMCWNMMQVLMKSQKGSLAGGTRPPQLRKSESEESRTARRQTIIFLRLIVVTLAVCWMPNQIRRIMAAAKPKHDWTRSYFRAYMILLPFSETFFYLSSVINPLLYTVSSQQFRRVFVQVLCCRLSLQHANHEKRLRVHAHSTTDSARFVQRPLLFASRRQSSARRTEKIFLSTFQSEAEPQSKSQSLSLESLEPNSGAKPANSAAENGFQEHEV
Method: The human GPR39-GFP expression vector-transfected CHO cell line produced in EXAMPLE 1 (CHO/hGPR39-GFP) was diluted in 3×10^4 cells/100 μl. The dilution was dispensed onto a Black walled 96-well plate (Costar) in 100 μl each per well, followed by incubation overnight in a CO2 incubator. Changes in intracellular calcium levels were determined by the following method using FLIPR (Molecular Device). In 21 μl of DMSO (DOJIN), 50 μg of Fluo-3AM (DOJIN) was dissolved and an equal volume of 20% Pluronic acid (Molecular Probes) was added to the solution. After mixing them, the resulting mixture was added to 10.6 ml of assay buffer [prepared by adding 20 ml of 1M HEPES (pH 7.4) (DOJIN) to HBSS (Invitrogen Corp.) and further adding to the solution 10 ml of a solution mixture, which mixture was prepared by dissolving 710 mg of Probenecid (Sigma) in 5 ml of 1N NaOH and then adding thereto 5 ml of the HBSS/HEPES solution above] supplemented with 105 μl of fetal calf serum to prepare a fluorescent dye solution. The medium in the cell plate was removed. Immediately thereafter, the fluorescent dye solution was dispensed in 100 μl each/well and the cells were incubated in a CO2 incubator for an hour so that the fluorescent dye was taken up into the cells. The cells after the incubation were washed with the assay buffer described above and set on FLIPR. Compounds of metal elements to be added to the cells were diluted to the respective concentration with the assay buffer. The dilutions were dispensed onto plates for ligands and set on FLIPR. Following the pre-treatment above, changes in intracellular calcium levels after addition of metal elements were determined by FLIPR to study agonist activities.

[Cl][Cu][Cl] [copper chloride]
dose-dependently increased: intracellular calcium levels of CHO/mGPR39 [1] | intracellular calcium levels of CHO/rGPR39 [2] | intracellular calcium levels of CHO/hGPR39-GFP [3]

[Cl][Ni][Cl] [nickel chloride]
dose-dependently increased: intracellular calcium levels of CHO/mGPR39 [1] | intracellular calcium levels of CHO/rGPR39 [2] | intracellular calcium levels of CHO/hGPR39-GFP [3]
